PubChem BioAssay (NCI)
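A five-concentration, 48-hour dose response in 96-well plates underlies each endpoint, interpolated linearly between surrounding concentrations. TGI is the concentration that stops growth completely.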

Columns and labels:
Assay in all cases: NCI anticancer screen, dose series, 48 h
SK-OV-3 ovarian = test system: SK-OV-3 ovarian
UACC-257 melanoma = test system: UACC-257 melanoma
SF-539 CNS = test system: SF-539 CNS
RXF 393 renal = test system: RXF 393 renal
TK-10 renal = test system: TK-10 renal
EKVX NSCLC = test system: EKVX NSCLC
786-0 renal = test system: 786-0 renal
PC-3 prostate = test system: PC-3 prostate
MCF7 breast = test system: MCF7 breast
NCI-H23 lung = test system: NCI-H23 lung
KM12 colon = test system: KM12 colon
M14 melanoma = test system: M14 melanoma
SNB-19 CNS = test system: SNB-19 CNS
OVCAR-8 ovarian = test system: OVCAR-8 ovarian
SNB-75 CNS = test system: SNB-75 CNS
OVCAR-3 ovarian = test system: OVCAR-3 ovarian
DU-145 prostate = test system: DU-145 prostate
BT-549 breast = test system: BT-549 breast
SF-295 CNS = test system: SF-295 CNS
HS 578T breast = test system: HS 578T breast
HT29 colon = test system: HT29 colon
SK-MEL-5 melanoma = test system: SK-MEL-5 melanoma
COLO 205 colon = test system: COLO 205 colon
NCI/ADR-RES ovarian = test system: NCI/ADR-RES ovarian
HCT-116 colon = test system: HCT-116 colon
HCC-2998 colon = test system: HCC-2998 colon
SR leukemia = test system: SR leukemia
A549 NSCLC = test system: A549 NSCLC
SN12C renal = test system: SN12C renal
CCRF-CEM leukemia = test system: CCRF-CEM leukemia
OVCAR-5 ovarian = test system: OVCAR-5 ovarian
SK-MEL-28 melanoma = test system: SK-MEL-28 melanoma
RPMI-8226 leukemia = test system: RPMI-8226 leukemia
OVCAR-4 ovarian = test system: OVCAR-4 ovarian
NCI-H460 lung = test system: NCI-H460 lung
IGROV1 ovarian = test system: IGROV1 ovarian
NCI-H226 lung = test system: NCI-H226 lung
ACHN renal = test system: ACHN renal
UACC-62 melanoma = test system: UACC-62 melanoma
SW-620 colon = test system: SW-620 colon
U251 CNS = test system: U251 CNS
NCI-H522 lung = test system: NCI-H522 lung
SK-MEL-2 melanoma = test system: SK-MEL-2 melanoma
HL-60(TB) leukemia = test system: HL-60(TB) leukemia
MALME-3M melanoma = test system: MALME-3M melanoma
SF-268 CNS = test system: SF-268 CNS
HOP-92 NSCLC = test system: HOP-92 NSCLC
UO-31 renal = test system: UO-31 renal
MDA-MB-435 = test system: MDA-MB-435
A498 renal = test system: A498 renal
MOLT-4 leukemia = test system: MOLT-4 leukemia
K-562 leukemia = test system: K-562 leukemia
MDA-MB-231 breast = test system: MDA-MB-231 breast
HCT-15 colon = test system: HCT-15 colon
T-47D breast = test system: T-47D breast
MDA-N = test system: MDA-N
LOX IMVI melanoma = test system: LOX IMVI melanoma
CAKI-1 renal = test system: CAKI-1 renal
HOP-62 NSCLC = test system: HOP-62 NSCLC
LXFL 529 NSCLC = test system: LXFL 529 NSCLC
SNB-78 CNS = test system: SNB-78 CNS
M19-MEL melanoma = test system: M19-MEL melanoma
KM20L2 colon = test system: KM20L2 colon
DMS 273 small cell lung = test system: DMS 273 small cell lung
DMS 114 small cell lung = test system: DMS 114 small cell lung
XF 498 CNS = test system: XF 498 CNS
DLD-1 colon = test system: DLD-1 colon

Measured: TGI

C[C@]12CC[C@H]3[C@@H](CC=C4C[C@@H](O)CC[C@@]43C)[C@@H]1C/C(=C\c1ccncc1)[C@@H]2O
58.9 µM: HCT-15 colon
79.6 µM: SK-OV-3 ovarian
39.5 µM: OVCAR-4 ovarian
45.9 µM: SF-539 CNS | SK-MEL-2 melanoma
50.5 µM: ACHN renal
21.1 µM: SK-MEL-5 melanoma
39.8 µM: OVCAR-8 ovarian
48.9 µM: RPMI-8226 leukemia
27.6 µM: HOP-92 NSCLC
61.9 µM: MOLT-4 leukemia
73.5 µM: IGROV1 ovarian
40.4 µM: UACC-257 melanoma
19.9 µM: BT-549 breast
24.9 µM: COLO 205 colon
33.6 µM: NCI-H23 lung
47.9 µM: MDA-MB-435
30.7 µM: UACC-62 melanoma
43 µM: PC-3 prostate
49.6 µM: DU-145 prostate
57.4 µM: CAKI-1 renal
67.7 µM: NCI/ADR-RES ovarian
59 µM: MCF7 breast
> 100 µM: TK-10 renal | OVCAR-3 ovarian | HS 578T breast | HT29 colon | HCC-2998 colon | OVCAR-5 ovarian | SW-620 colon | UO-31 renal | K-562 leukemia | HOP-62 NSCLC
57.2 µM: NCI-H226 lung
50.8 µM: CCRF-CEM leukemia
61.3 µM: A549 NSCLC
31.2 µM: KM12 colon
57.7 µM: NCI-H522 lung
99.2 µM: MDA-MB-231 breast
60.5 µM: 786-0 renal
42.2 µM: NCI-H460 lung
61 µM: LOX IMVI melanoma
51.3 µM: SK-MEL-28 melanoma
42.5 µM: T-47D breast
38 µM: RXF 393 renal
34.8 µM: SN12C renal
28.3 µM: A498 renal
33.9 µM: U251 CNS
40.6 µM: M14 melanoma
62.8 µM: SNB-75 CNS
49.1 µM: EKVX NSCLC
62.1 µM: SNB-19 CNS | MALME-3M melanoma
31 µM: HL-60(TB) leukemia
54.4 µM: SF-268 CNS | MDA-N
35.5 µM: SF-295 CNS
57.3 µM: SR leukemia
51.4 µM: HCT-116 colon

COc1cccc(C2=NC(C(C)C)CO2)c1OC (stereo not drawn)
not listed: PC-3 prostate | MCF7 breast | DU-145 prostate | BT-549 breast | HS 578T breast | NCI/ADR-RES ovarian | HCT-116 colon | SR leukemia | U251 CNS | MDA-MB-435 | MDA-MB-231 breast | T-47D breast | MDA-N
> 100 µM: all other assays above

CC(=O)NC(CCCCNCc1ccccc1)C(=O)NCc1ccccc1 (stereo not drawn)
not listed: PC-3 prostate | MCF7 breast | DU-145 prostate | BT-549 breast | HS 578T breast | NCI/ADR-RES ovarian | SR leukemia | HL-60(TB) leukemia | MDA-MB-435 | MDA-MB-231 breast | T-47D breast | MDA-N
> 100 µM: all other assays above
